Data as given in PMC6409085, “Three odorant-binding proteins are involved in the behavioral response of Sogatella furcifera to rice plant volatiles” (PeerJ, 2019).
Where “and” joins values, the source holds several entries; their conditions need not be identical. Identical values can stand only once.

Columns and labels:
S. furcifera adults = assay: Y-tube olfactometer behavioral trials; format: in vivo, Sogatella furcifera; conditions: odorant 50 µL/L vs hexane
Procedure, shortened: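 Single S. furcifera adults (2 days post-emergence, starved 0.5 h) chose between odorant (100 µL of 50 µL/L on filter paper) and hexane control in a glass Y-tube, charcoal-filtered humidified air 300 mL/min per arm, 25 ± 1 °C, 50% RH. Choice scored if insect passed half an arm and stayed >1 min within 10 min; 45 insects per compound, chi-squared test.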

SfurOBP11 = SfurOBP11 (Sogatella furcifera, UniProt V5T6E3); assay: biochemical; format: binding
Procedure, shortened: (§1)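 In 50 mM Tris-HCl pH 7.4, odorants displace 1-NPN (2.0 µM) from 2.0 µM protein. Emission at 390–490 nm under 337 nm excitation is measured 2 min after competitor addition, in triplicate. Ki is obtained from IC50 and the 1-NPN dissociation constant.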

SfurOBP1 = SfurOBP1 (Sogatella furcifera, UniProt V5T8N5); assay: biochemical; format: binding; conditions: for Fluorescence competitive binding assay, fluorescence intensity: OBP1, three replicate columns
Procedure, shortened: as §1

SfurOBP2 = SfurOBP2 (Sogatella furcifera, UniProt V5T759); assay: biochemical; format: binding
Procedure, shortened: as §1

SfurOBP3 = SfurOBP3 (Sogatella furcifera, UniProt V5T818); assay: biochemical; format: binding; conditions: for Fluorescence competitive binding assay, fluorescence intensity: OBP3, three replicate columns
Procedure, shortened: as §1

Sequence of SfurOBP3 (V5T818 entry or part of it): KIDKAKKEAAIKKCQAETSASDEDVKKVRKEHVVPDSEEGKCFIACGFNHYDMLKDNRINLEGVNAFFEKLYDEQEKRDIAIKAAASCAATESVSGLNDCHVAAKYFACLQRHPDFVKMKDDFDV
Sequence of SfurOBP2 (V5T759 entry or part of it): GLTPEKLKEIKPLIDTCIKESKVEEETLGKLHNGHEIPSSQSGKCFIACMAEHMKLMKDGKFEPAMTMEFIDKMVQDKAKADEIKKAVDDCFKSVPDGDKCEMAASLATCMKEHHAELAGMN
Sequence of SfurOBP11 (V5T6E3 entry or part of it): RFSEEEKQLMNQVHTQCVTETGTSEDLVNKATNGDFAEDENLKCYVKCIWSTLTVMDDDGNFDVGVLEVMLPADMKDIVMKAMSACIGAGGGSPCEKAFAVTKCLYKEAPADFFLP
Sequence of SfurOBP1 (V5T8N5 entry or part of it): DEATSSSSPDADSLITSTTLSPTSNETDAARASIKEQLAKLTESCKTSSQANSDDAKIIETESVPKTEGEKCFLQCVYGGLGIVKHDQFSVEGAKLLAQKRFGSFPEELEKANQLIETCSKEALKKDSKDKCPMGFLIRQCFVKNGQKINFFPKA

## C=C(C)C1CC=C(C)CC1 (single isomer, unassigned; (+)) [(+)-limonene]
S. furcifera adults
  behavioral response of S. furcifera (in words): strongly attracted
S. furcifera adults; adults
  number of insects choosing hexane arm: 7
  number of insects choosing volatilies arm: 16
  number of insects failed (no choice): 17
SfurOBP11; SfurOBP11, protein and 1-NPN both 2.0 µM, competitor 2-20 µM, read-out: IC50
  IC50: > 20 µM
SfurOBP11; ligand concentration 2, replicate 1
  Fluorescence intensity, fluorescence competitive binding assay, OBP11: 20185
SfurOBP11; ligand concentration 2, replicate 2
  Fluorescence intensity, fluorescence competitive binding assay, OBP11: 20635
SfurOBP11; ligand concentration 2, replicate 3
  Fluorescence intensity, fluorescence competitive binding assay, OBP11: 20374
SfurOBP11; ligand concentration 4, replicate 1
  Fluorescence intensity, fluorescence competitive binding assay, OBP11: 19119
SfurOBP11; ligand concentration 4, replicate 2
  Fluorescence intensity, fluorescence competitive binding assay, OBP11: 21150
SfurOBP11; ligand concentration 4, replicate 3
  Fluorescence intensity, fluorescence competitive binding assay, OBP11: 19404
SfurOBP11; ligand concentration 6, replicate 1
  Fluorescence intensity, fluorescence competitive binding assay, OBP11: 20124
SfurOBP11; ligand concentration 6, replicate 2
  Fluorescence intensity, fluorescence competitive binding assay, OBP11: 20072
SfurOBP11; ligand concentration 6, replicate 3
  Fluorescence intensity, fluorescence competitive binding assay, OBP11: 19868
SfurOBP11; ligand concentration 8, replicate 1
  Fluorescence intensity, fluorescence competitive binding assay, OBP11: 18585
SfurOBP11; ligand concentration 8, replicate 2
  Fluorescence intensity, fluorescence competitive binding assay, OBP11: 21246
SfurOBP11; ligand concentration 8, replicate 3
  Fluorescence intensity, fluorescence competitive binding assay, OBP11: 19916
SfurOBP11; ligand concentration 10, replicate 1
  Fluorescence intensity, fluorescence competitive binding assay, OBP11: 19564
SfurOBP11; ligand concentration 10, replicate 2
  Fluorescence intensity, fluorescence competitive binding assay, OBP11: 19568
SfurOBP11; ligand concentration 10, replicate 3
  Fluorescence intensity, fluorescence competitive binding assay, OBP11: 19649
SfurOBP11; ligand concentration 12, replicate 1
  Fluorescence intensity, fluorescence competitive binding assay, OBP11: 19387
SfurOBP11; ligand concentration 12, replicate 2
  Fluorescence intensity, fluorescence competitive binding assay, OBP11: 19954
SfurOBP11; ligand concentration 12, replicate 3
  Fluorescence intensity, fluorescence competitive binding assay, OBP11: 20491
SfurOBP11; ligand concentration 14, replicate 1
  Fluorescence intensity, fluorescence competitive binding assay, OBP11: 19217
SfurOBP11; ligand concentration 14, replicate 2
  Fluorescence intensity, fluorescence competitive binding assay, OBP11: 19676
SfurOBP11; ligand concentration 14, replicate 3
  Fluorescence intensity, fluorescence competitive binding assay, OBP11: 19052
SfurOBP11; ligand concentration 16, replicate 1
  Fluorescence intensity, fluorescence competitive binding assay, OBP11: 18294
SfurOBP11; ligand concentration 16, replicate 2
  Fluorescence intensity, fluorescence competitive binding assay, OBP11: 18202
SfurOBP11; ligand concentration 16, replicate 3
  Fluorescence intensity, fluorescence competitive binding assay, OBP11: 18385
SfurOBP11; ligand concentration 18, replicate 1
  Fluorescence intensity, fluorescence competitive binding assay, OBP11: 17514
SfurOBP11; ligand concentration 18, replicate 2
  Fluorescence intensity, fluorescence competitive binding assay, OBP11: 18012
SfurOBP11; ligand concentration 18, replicate 3
  Fluorescence intensity, fluorescence competitive binding assay, OBP11: 18287
SfurOBP11; ligand concentration 20, replicate 1
  Fluorescence intensity, fluorescence competitive binding assay, OBP11: 16634
SfurOBP11; ligand concentration 20, replicate 2
  Fluorescence intensity, fluorescence competitive binding assay, OBP11: 17062
SfurOBP11; ligand concentration 20, replicate 3
  Fluorescence intensity, fluorescence competitive binding assay, OBP11: 17452
SfurOBP1; ligand concentration 2 (μM)
  Fluorescence competitive binding assay, fluorescence intensity: 5110 and 5104 and 5112
SfurOBP1; ligand concentration 4 (μM)
  Fluorescence competitive binding assay, fluorescence intensity: 5716 and 6377 and 5308
SfurOBP1; ligand concentration 6 (μM)
  Fluorescence competitive binding assay, fluorescence intensity: 6462 and 7662 and 6319
SfurOBP1; ligand concentration 8 (μM)
  Fluorescence competitive binding assay, fluorescence intensity: 6113 and 5754 and 14807
SfurOBP1; ligand concentration 10 (μM)
  Fluorescence competitive binding assay, fluorescence intensity: 5995 and 6375 and 7413
SfurOBP1; ligand concentration 12 (μM)
  Fluorescence competitive binding assay, fluorescence intensity: 5970 and 7970 and 8226
SfurOBP1; ligand concentration 14 (μM)
  Fluorescence competitive binding assay, fluorescence intensity: 5770 and 8418 and 5488
SfurOBP1; ligand concentration 16 (μM)
  Fluorescence competitive binding assay, fluorescence intensity: 4972 and 5953 and 5038
SfurOBP1; ligand concentration 18 (μM)
  Fluorescence competitive binding assay, fluorescence intensity: 6525 and 7403 and 8592
SfurOBP1; ligand concentration 20 (μM)
  Fluorescence competitive binding assay, fluorescence intensity: 7343 and 8136 and 7739
SfurOBP1; SfurOBP1, protein and 1-NPN both 2.0 µM, competitor 2-20 µM, read-out: IC50
  IC50: > 20 µM
SfurOBP2; SfurOBP2, protein and 1-NPN both 2.0 µM, competitor 2-20 µM, read-out: IC50
  IC50: > 20 µM
SfurOBP2; ligand concentration 2 (unit not given), replicate column 1 of 3
  Fluorescence competitive binding assay, OBP2 (raw fluorescence reading): 18785
SfurOBP2; ligand concentration 2 (unit not given), replicate column 2 of 3
  Fluorescence competitive binding assay, OBP2 (raw fluorescence reading): 17646
SfurOBP2; ligand concentration 2 (unit not given), replicate column 3 of 3
  Fluorescence competitive binding assay, OBP2 (raw fluorescence reading): 18955
SfurOBP2; ligand concentration 4 (unit not given), replicate column 1 of 3
  Fluorescence competitive binding assay, OBP2 (raw fluorescence reading): 19168
SfurOBP2; ligand concentration 4 (unit not given), replicate column 2 of 3
  Fluorescence competitive binding assay, OBP2 (raw fluorescence reading): 18029
SfurOBP2; ligand concentration 4 (unit not given), replicate column 3 of 3
  Fluorescence competitive binding assay, OBP2 (raw fluorescence reading): 18599
SfurOBP2; ligand concentration 6 (unit not given), replicate column 1 of 3
  Fluorescence competitive binding assay, OBP2 (raw fluorescence reading): 18726
SfurOBP2; ligand concentration 6 (unit not given), replicate column 2 of 3
  Fluorescence competitive binding assay, OBP2 (raw fluorescence reading): 17846
SfurOBP2; ligand concentration 6 (unit not given), replicate column 3 of 3
  Fluorescence competitive binding assay, OBP2 (raw fluorescence reading): 18376
SfurOBP2; ligand concentration 8 (unit not given), replicate column 1 of 3
  Fluorescence competitive binding assay, OBP2 (raw fluorescence reading): 17673
SfurOBP2; ligand concentration 8 (unit not given), replicate column 2 of 3
  Fluorescence competitive binding assay, OBP2 (raw fluorescence reading): 18323
SfurOBP2; ligand concentration 8 (unit not given), replicate column 3 of 3
  Fluorescence competitive binding assay, OBP2 (raw fluorescence reading): 17474
SfurOBP2; ligand concentration 10 (unit not given), replicate column 1 of 3
  Fluorescence competitive binding assay, OBP2 (raw fluorescence reading): 16329
SfurOBP2; ligand concentration 10 (unit not given), replicate column 2 of 3
  Fluorescence competitive binding assay, OBP2 (raw fluorescence reading): 16489
SfurOBP2; ligand concentration 10 (unit not given), replicate column 3 of 3
  Fluorescence competitive binding assay, OBP2 (raw fluorescence reading): 16675
SfurOBP2; ligand concentration 12 (unit not given), replicate column 1 of 3
  Fluorescence competitive binding assay, OBP2 (raw fluorescence reading): 16493
SfurOBP2; ligand concentration 12 (unit not given), replicate column 2 of 3
  Fluorescence competitive binding assay, OBP2 (raw fluorescence reading): 16176
SfurOBP2; ligand concentration 12 (unit not given), replicate column 3 of 3
  Fluorescence competitive binding assay, OBP2 (raw fluorescence reading): 16335
SfurOBP2; ligand concentration 14 (unit not given), replicate column 1 of 3
  Fluorescence competitive binding assay, OBP2 (raw fluorescence reading): 13873
SfurOBP2; ligand concentration 14 (unit not given), replicate column 2 of 3
  Fluorescence competitive binding assay, OBP2 (raw fluorescence reading): 13950
SfurOBP2; ligand concentration 14 (unit not given), replicate column 3 of 3
  Fluorescence competitive binding assay, OBP2 (raw fluorescence reading): 13912
SfurOBP2; ligand concentration 16 (unit not given), replicate column 1 of 3
  Fluorescence competitive binding assay, OBP2 (raw fluorescence reading): 12506
SfurOBP2; ligand concentration 16 (unit not given), replicate column 2 of 3
  Fluorescence competitive binding assay, OBP2 (raw fluorescence reading): 13445
SfurOBP2; ligand concentration 16 (unit not given), replicate column 3 of 3
  Fluorescence competitive binding assay, OBP2 (raw fluorescence reading): 12627
SfurOBP2; ligand concentration 18 (unit not given), replicate column 1 of 3
  Fluorescence competitive binding assay, OBP2 (raw fluorescence reading): 13201
SfurOBP2; ligand concentration 18 (unit not given), replicate column 2 of 3
  Fluorescence competitive binding assay, OBP2 (raw fluorescence reading): 13156
SfurOBP2; ligand concentration 18 (unit not given), replicate column 3 of 3
  Fluorescence competitive binding assay, OBP2 (raw fluorescence reading): 13110
SfurOBP2; ligand concentration 20 (unit not given), replicate column 1 of 3
  Fluorescence competitive binding assay, OBP2 (raw fluorescence reading): 12573
SfurOBP2; ligand concentration 20 (unit not given), replicate column 2 of 3
  Fluorescence competitive binding assay, OBP2 (raw fluorescence reading): 13554
SfurOBP2; ligand concentration 20 (unit not given), replicate column 3 of 3
  Fluorescence competitive binding assay, OBP2 (raw fluorescence reading): 12438
SfurOBP3; ligand concentration 2
  Fluorescence competitive binding assay, fluorescence intensity: 51848 and 49151 and 50500
SfurOBP3; ligand concentration 4
  Fluorescence competitive binding assay, fluorescence intensity: 50802 and 50041 and 48259
SfurOBP3; ligand concentration 6
  Fluorescence competitive binding assay, fluorescence intensity: 50158 and 49686 and 49223
SfurOBP3; ligand concentration 8
  Fluorescence competitive binding assay, fluorescence intensity: 48228 and 50693 and 49450
SfurOBP3; ligand concentration 10
  Fluorescence competitive binding assay, fluorescence intensity: 46402 and 47349 and 46178
SfurOBP3; ligand concentration 12
  Fluorescence competitive binding assay, fluorescence intensity: 39434 and 38976 and 40288
SfurOBP3; ligand concentration 14
  Fluorescence competitive binding assay, fluorescence intensity: 38805 and 38818 and 38804
SfurOBP3; ligand concentration 16
  Fluorescence competitive binding assay, fluorescence intensity: 34272 and 34325 and 34139
SfurOBP3; ligand concentration 18
  Fluorescence competitive binding assay, fluorescence intensity: 33102 and 34070 and 35044
SfurOBP3; ligand concentration 20
  Fluorescence competitive binding assay, fluorescence intensity: 32236 and 31361 and 31799
SfurOBP3; SfurOBP3, protein and 1-NPN both 2.0 µM, competitor 2-20 µM, read-out: IC50
  IC50: > 20 µM
